Target: MAP4K1 (HPK1) (Homo sapiens (Human), UniProt Q92918)
Experiment: MAP4K1 (HPK1) biochemical enzymatic activity, electrophoretic mobility shift (EZReader 2), ATP at APPKM (26 μM)
Excerpt: MAP4K1 (HPK1) and relevant off-target enzymatic activity was monitored using the Perkin Elmer electrophoretic mobility shift technology platform—the EZReader 2. […] Within the linear, steady-state phase of the kinase enzymatic reaction, the mixed pool of phosphorylated (product) and non-phosphorylated (substrate) peptides was passed through the microfluidic system of the PerkinElmer EZ Reader 2, under an applied electric potential difference. The presence of the phosphate group on the product peptide provided a difference in mass and charge between that of the substrate peptide, resulting in a separation of the substrate and product pools in the sample (Perrin et al. 2010). As the product and substrate peptide mixture passes the lasers within the instrument, these pools are detected (λex=488 nm, λent=568 nm) and resolved as separate peaks. The ratio between these peaks reflects the activity of the compound at that concentration, in that well, under those conditions.
Inhibitors were dissolved in 100% DMSO at a stock concentration of 10 mM. A 100×, 10-point, 4-fold serial dilution of each inhibitor was created in 100% DMSO either manually or on a Hamilton STAR liquid handler, starting at a relevant concentration, usually 1 mM. A volume of 0.130 μL of each concentration was transferred to the relevant wells of a 384-well plate (Greiner 781 201) in duplicate using a TTPLabtech Mosquito nano-litre dispenser. Using a Multidrop Combi, the remaining constituents of the kinase reaction were added to the 130 nL of dosed compound as follows (see table below for final reaction details):
Enzyme activity assays at the ^APPKM for ATP or 1 mM ATP: In each well of a 384-well plate, 0.1-15 nM of untreated enzyme was incubated in a total of 13 μL of buffer (100 mM HEPES pH 7.5, 0.015% Brij 35, 10 mM MgCl2, 1 mM DTT) with 1.5 μM fluorescent peptid and 20-1000 μM ATP, at 25° C., for 60-180 minutes in the presence or absence of a dosed concentration series of compound (1% DMSO final concentration). The kinase reactions were stopped by the addition of 70 μl of Stop buffer (100 mM HEPES pH 7.5, 0.015% Brij 35, 35 mM EDTA and 0.2% of Coating Reagent 3 (Caliper Lifesciences)). The plates were read on a Caliper EZReader 2 as described above.

MAP4K1 (HPK1), sequence (Q92918 whole entry): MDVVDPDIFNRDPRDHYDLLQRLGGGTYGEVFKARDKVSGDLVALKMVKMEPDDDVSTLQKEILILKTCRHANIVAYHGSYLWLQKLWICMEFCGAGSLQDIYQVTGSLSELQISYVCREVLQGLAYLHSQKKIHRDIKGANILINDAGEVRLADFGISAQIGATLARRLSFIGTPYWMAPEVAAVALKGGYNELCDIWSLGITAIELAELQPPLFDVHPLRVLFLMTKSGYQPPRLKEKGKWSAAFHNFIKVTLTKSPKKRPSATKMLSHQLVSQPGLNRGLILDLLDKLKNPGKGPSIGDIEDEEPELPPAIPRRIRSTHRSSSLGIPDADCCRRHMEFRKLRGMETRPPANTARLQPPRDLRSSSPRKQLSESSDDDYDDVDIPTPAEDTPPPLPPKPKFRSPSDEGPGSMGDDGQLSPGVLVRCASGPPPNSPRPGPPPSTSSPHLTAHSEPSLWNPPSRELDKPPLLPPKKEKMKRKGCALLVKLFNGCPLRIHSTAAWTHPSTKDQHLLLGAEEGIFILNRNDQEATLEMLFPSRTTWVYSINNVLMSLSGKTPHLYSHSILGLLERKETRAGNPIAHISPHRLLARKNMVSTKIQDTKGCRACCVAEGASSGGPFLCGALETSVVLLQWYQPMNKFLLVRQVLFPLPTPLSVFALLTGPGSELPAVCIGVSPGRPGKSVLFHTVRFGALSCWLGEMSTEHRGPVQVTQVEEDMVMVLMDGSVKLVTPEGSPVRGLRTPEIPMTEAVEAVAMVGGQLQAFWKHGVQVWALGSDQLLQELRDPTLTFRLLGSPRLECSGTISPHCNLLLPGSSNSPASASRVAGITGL

| SMILES | IC50 (class designation) [nM] | IC50 (numeric value) [nM] |
| --- | --- | --- |
| C[C@@H]1OC(=O)c2ccc(Nc3cc4c([C@@](C)(N)C5CC5)cnc(O[C@H]5C[C@H](O)C5)c4cn3)nc2[C@H]1C (relative stereo) [Compound 193, (7S,8R)-2-((5-((R)-1-Amino-1-cyclopropylethyl)-8-((trans)-3-hydroxycyclobutoxy)-2,7-naphthyridin-3-yl)amino)-7,8-dimethyl-7,8-dihydro-5H-pyrano[4,3-b]pyridin-5-one and (7S,8R)-2-((5-((S)-1-amino-1-cyclopropylethyl)-8-((trans)-3-hydroxycyclobutoxy)-2,7-naphthyridin-3-yl)amino)-7,8-dimethyl-7,8-dihydro-5H-pyrano[4,3-b]pyridin-5-one] | < 0.3 | 0.1 |
| CC[C@H](F)c1nc(Nc2cc3c(C(C)(C)N)cnc(OC)c3cn2)cnc1C#N (single isomer, unassigned) [Compound 30] | 1.1 to 10 | 3.57 |
| CC[C@@H](F)c1nc(Nc2cc3c(C(C)(C)N)cnc(OC)c3cn2)cnc1C#N (single isomer, unassigned) [Compound 31] | 1.1 to 10 | 5.88 |
| CC[C@](C)(N)c1cnc(OC)c2cnc(Nc3ccc4c(n3)CC(C)(C)OC4=O)cc12 (single isomer, unassigned) [Compound 62] | 0.31 to 1 | 0.55 |
| C[C@](N)(c1cnc(OC2CC2)c2cnc(Nc3ccc4c(n3)CCOC4=O)cc12)C1CC1 (single isomer, unassigned) [Compound 108] |  | 0.98 |
| C[C@@H]1OC(=O)c2ccc(Nc3cc4c(C(C)(N)CO)cnc(OC5CC5)c4cn3)nc2[C@H]1C (single isomer, unassigned) [Compound 139, (7S,8R)-2-((5-((R)-2-Amino-1-hydroxypropan-2-yl)-8-cyclopropoxy-2,7-naphthyridin-3-yl)amino)-7,8-dimethyl-7,8-dihydro-5H-pyrano[4,3-b]pyridin-5-one or (7S,8R)-2-((5-((S)-2-amino-1-hydroxypropan-2-yl)-8-cyclopropoxy-2,7-naphthyridin-3-yl)amino)-7,8-dimethyl-7,8-dihydro-5H-pyrano[4,3-b]pyridin-5-one] | 1.1 to 10 | 2.25 |
| C[C@@H]1OC(=O)c2ccc(Nc3cc4c([C@](C)(N)CO)cnc(OC5CC5)c4cn3)nc2[C@H]1C (single isomer, unassigned) [Compound 140, (7S,8R)-2-((5-((R)-2-Amino-1-hydroxypropan-2-yl)-8-cyclopropoxy-2,7-naphthyridin-3-yl)amino)-7,8-dimethyl-7,8-dihydro-5H-pyrano[4,3-b]pyridin-5-one or (7S,8R)-2-((5-((S)-2-amino-1-hydroxypropan-2-yl)-8-cyclopropoxy-2,7-naphthyridin-3-yl)amino)-7,8-dimethyl-7,8-dihydro-5H-pyrano[4,3-b]pyridin-5-one] | > 10 |  |
| CC1(C)Cc2nc(Nc3cc4c([C@](C)(N)C5CC5)cnc(OC5CC5)c4cn3)ccc2C(=O)N1 (single isomer, unassigned) [Compound 148] |  | 0.11 |
| CC1(C)Cc2nc(Nc3cc4c([C@@](C)(N)C5CC5)cnc(OC5CC5)c4cn3)ccc2C(=O)O1 (single isomer, unassigned) [Compound 153] |  | 2.61 |
| C[C@H](Oc1ncc(C(C)(C)N)c2cc(Nc3ccc4c(n3)CC(C)(C)OC4=O)ncc12)C(F)F (single isomer, unassigned) [Compound 164] | 1.1 to 10 | 7.35 |
| C[C@@H](Oc1ncc(C(C)(C)N)c2cc(Nc3ccc4c(n3)CC(C)(C)OC4=O)ncc12)C(F)F (single isomer, unassigned) [Compound 165] | 1.1 to 10 | 1.26 |
| CC[C@](C)(N)c1cnc(OCC(F)(F)F)c2cnc(Nc3ccc4c(n3)C(C)(C)OC4=O)cc12 (single isomer, unassigned) [Compound 173] | 1.1 to 10 | 1.72 |
| CC[C@@](C)(N)c1cnc(OCC(F)(F)F)c2cnc(Nc3ccc4c(n3)C(C)(C)OC4=O)cc12 (single isomer, unassigned) [Compound 175] | > 10 | 35.1 |
| C[C@@H](Oc1ncc(C(C)(C)N)c2cc(Nc3ccc4c(n3)CC(C)(C)OC4=O)ncc12)C(F)(F)F (single isomer, unassigned) [Compound 179] | 1.1 to 10 | 2.12 |
| C[C@H](Oc1ncc(C(C)(C)N)c2cc(Nc3ccc4c(n3)CC(C)(C)OC4=O)ncc12)C(F)(F)F (single isomer, unassigned) [Compound 180] | > 10 | 15.4 |
| CC[C@@H](N)c1ccc(OC)c2cnc(Nc3ccc4c(n3)C3(CC3)C(C)(C)OC4=O)cc12 (single isomer, unassigned) [Compound 207, (S)-2′-((5-(1-Aminopropyl)-8-methoxyisoquinolin-3-yl)amino)-7′,7′-dimethyl-5′H,7′H-spiro[cyclopropane-1,8′-pyrano[4,3-b]pyridin]-5′-one or (R)-2′-((5-(1-aminopropyl)-8-methoxyisoquinolin-3-yl)amino)-7′,7′-dimethyl-5′H,7′H-spiro[cyclopropane-1,8′-pyrano[4,3-b]pyridin]-5′-one] | < 0.3 | 0.22 |
| COc1ncc([C@H](C)N)c2cc(Nc3ccnc(C(C)(C)F)n3)ncc12 (stereo in doubt) [Compound 1, 5-(1-Aminoethyl)-N-(2-(2-fluoropropan-2-yl)pyrimidin-4-yl)-8-methoxy-2,7-naphthyridin-3-amine] | > 10 | 21.4 |

| SMILES | IC50 (class designation) [nM] | IC50 (numeric value) [nM] |
| --- | --- | --- |
| COc1ncc(C(C)(C)N)c2cc(Nc3ccnc(OC(C)C)n3)ncc12 [Compound 4] | 0.31 to 1 | 0.42 |
| CNc1ncc(C(C)(C)N)c2cc(Nc3ccnc(C(C)(C)F)n3)ncc12 [Compound 6, 4-(2-Aminopropan-2-yl)-N6-(2-(2-fluoropropan-2-yl)pyrimidin-4-yl)-N1-methyl-2,7-naphthyridine-1,6-diamine] | 1.1 to 10 | 3.31 |
| CNc1ncc(C(C)(C)N)c2cc(Nc3cnc(C#N)c(C(C)C)n3)ncc12 [Compound 8, 5-((5-(2-Aminopropan-2-yl)-8-(methylamino)-2,7-naphthyridin-3-yl)amino)-3-isopropylpyrazine-2-carbonitrile] | > 10 | 11.1 |
| COc1ncc(C(C)(C)N)c2cc(Nc3cnc(C#N)c(C(C)C)n3)ncc12 [Compound 10] | 1.1 to 10 | 2.73 |
| CCOc1ncc(C(C)(C)N)c2cc(Nc3ccnc(C(C)(C)F)n3)ncc12 [Compound 16] | 1.1 to 10 | 2.5 |
| CNC(C)(C)c1cnc(OC)c2cnc(Nc3ccnc(C(C)(C)F)n3)cc12 [Compound 17, N-(2-(2-Fluoropropan-2-yl)pyrimidin-4-yl)-8-methoxy-5-(2-(methylamino)propan-2-yl)-2,7-naphthyridin-3-amine] | 1.1 to 10 | 4.02 |
| CC[C@@H](C)c1nc(Nc2cc3c(C(C)(C)N)cnc(OC)c3cn2)ccc1C#N [Compound 18] | 0.31 to 1 | 0.4 |
| COc1ncc(C(C)(C)N)c2cc(Nc3ccnc(N4CCC[C@@H]4C)n3)ncc12 [Compound 27] | < 0.3 | 0.3 |
| COc1ncc(C(C)(C)N)c2cc(Nc3cnc(C#N)c(C(C)(C)F)n3)ncc12 [Compound 29] | 1.1 to 10 | 3.98 |
| COc1ncc(C(C)(C)N)c2cc(Nc3cnc4c(n3)CC(C)(C)OC4=O)ncc12 [Compound 47] | > 10 | 13.6 |
| COc1ncc(C(C)(C)N)c2cc(Nc3cnc(C#N)c(N4CCC[C@@H]4C)n3)ncc12 [Compound 49] | 0.31 to 1 | 1.01 |
| COc1ncc(C2CCCN2)c2cc(Nc3ccc4c(n3)CC(C)(C)OC4=O)ncc12 (stereo not shown) [Compound 50, 2-((8-Methoxy-5-(pyrrolidin-2-yl)-2,7-naphthyridin-3-yl)amino)-7,7-dimethyl-7,8-dihydro-5H-pyrano[4,3-b]pyridin-5-one] | > 10 | 52.6 |
| COc1ncc(C(C)(C)N)c2cc(Nc3ccc4c(n3)[C@H]3CCC[C@H]3OC4=O)ncc12 [Compound 51] | < 0.3 | 0.26 |
| COc1ncc(C(C)(C)N)c2cc(Nc3cnc(C#N)c(C(C)C(F)(F)F)n3)ncc12 (stereo not shown) [Compound 63] | 1.1 to 10 | 6.46 |
| C[C@H]1OC(=O)c2ccc(Nc3cc4c(C(C)(C)N)cnc(OC5CC5)c4cn3)nc2[C@@H]1C [Compound 65] | 0.31 to 1 | 0.56 |
| CC[C@@](C)(N)c1cnc(OC2(C)CC2)c2cnc(Nc3ccc4c(n3)[C@@H](C)[C@H](C)OC4=O)cc12 [Compound 84] | 1.1 to 10 | 1.32 |
| CC[C@@](C)(N)c1cnc(OC2(C)CC2)c2cnc(Nc3ccc4c(n3)[C@@H](C)C(C)(C)OC4=O)cc12 [Compound 86] | 1.1 to 10 | 2.03 |
